Source: US20210379010A1, “COMPOSITIONS COMPRISING CANNABINOIDS FOR USE IN THE TREATMENT OF BIOFILM AND CONDITIONS ASSOCIATED WITH MICROBIAL, FUNGAL, BACTERIAL INFECTIONS” (Yissum Research Development Company of The Hebrew …, priority 2018, published 2021)
≈ marks a conversion by molar mass, not a printed value.

Legend:
C. albicans biofilm [1] = assay: MTT assay of C. albicans biofilm; assay type: cell-based
Description: To investigate the effect of the agents on preformed biofilms, biofilms were allowed to mature in for 24 h at 37° C. in a 6-well plate. The biofilms were washed twice with PBS. The active agents were then applied. The plates were further incubated for 24 h at 37° C. The amounts of biofilms, were determined quantitatively using a standard MTT reduction assay as described previously. Briefly, biofilms were overlaid with […] of 3-(4,5-dimethyl-2-thiazolyl)-2,5-diphenyl-2H-tetrazolium bromide (MTT) and incubated for 2 h at 37° C. Under these conditions, the lightly yellowish MTT was reduced to a blue tetrazolium salt accumulated within the metabolic active biofilms. The stain was then dissolved in DMSO and the absorbance value was measured at 570 nm. The accumulation of tetrazolium salt by the reduction of MTT is proportional to the number of viable cells growing in biofilm. Prior to dissolving in DMSO, biofilms were photographed and visualized. Assay was performed in triplicate.

S.aureus MRSA 43300 = assay: Growth of MRSA 43300, cannabinoid alone and combined with antibiotic (MIC/FIC/FICI); assay type: cell-based; details: MRSA 43300 growth; for MIC AMP: ampicillin alone; for MIC METH: methicillin alone
[2] = system: S.aureus MRSA 43300 biofilm; assay: Biofilm formation of MRSA 43300, cannabinoid alone and combined with antibiotic (MBIC/FBIC/FBICI); assay type: cell-based; details: for MBIC AMP: ampicillin alone; for MBIC METH: methicillin alone
[3] = system: S.aureus MRSA 33592 biofilm; assay: Biofilm formation of MRSA 33592, cannabinoid alone and combined with antibiotic (MBIC/FBIC/FBICI); assay type: cell-based; details: for MBIC AMP: ampicillin alone; for MBIC METH: methicillin alone
S.aureus MRSA 33592 = assay: Growth of MRSA 33592, cannabinoid alone and combined with antibiotic (MIC/FIC/FICI); assay type: cell-based; details: MRSA 33592 growth; for MIC AMP: ampicillin alone; for MIC METH: methicillin alone
[4] = system: fluconazole resistant C. albicans strains; assay type: cell-based; details: each agent alone or in combination; data not shown
C. albicans biofilm [5] = assay: C. albicans biofilm formation inhibition; assay type: cell-based
[6] = system: mixed S. mutans-C. albicans; assay: Growth of C. albicans-S. mutans co-culture; assay type: cell-based; details: all tested doses
C. albicans = C. albicans growth (MIC); assay type: cell-based; details: single C. albicans growth; highest tested dose 64 μg/ml
C. albicans biofilm [7] = assay: Microscopic observation of fungal morphology in biofilm; assay type: cell-based
S. mutans biofilm = S. mutans biofilm formation inhibition; assay type: cell-based; details: for MBIC50: S. mutans biofilm formation
[8] = system: mixed C. albicans-S. mutans biofilm; assay: Co-species C. albicans-S. mutans biofilm formation inhibition; assay type: cell-based
S. mutans = S. mutans growth (MIC); assay type: cell-based; details: single S. mutans growth
C. albicans biofilm [9] = assay: Flow cytometry analysis of viable cells in fungal biofilm; assay type: cell-based; details: for granularity: control 136 AU; for cell size: control 260 AU
[10] = system: S. aureus MRSA 24433 biofilm; assay: Biofilm formation of MRSA 24433, cannabinoid alone and combined with antibiotic (MBIC/FBIC/FBICI); assay type: cell-based; details: for MBIC METH: methicillin alone
S. aureus MRSA 24433 = assay: Growth of MRSA 24433, cannabinoid alone and combined with antibiotic (MIC/FIC/FICI); assay type: cell-based; details: for FIC METH / MIC METH: MRSA 24433 growth; for MIC METH: methicillin alone
P. aeruginosa biofilm = assay: CLSM of treated P. aeruginosa biofilm

CCCCC/C=C\C/C=C\C/C=C\C/C=C\CCCC(=O)OC(CO)CO [2-AG, 2-arachidonoyl glycerol]
C. albicans biofilm formation (MTT assay) (C. albicans biofilm [1]): dose-dependent inhibition

CC1(C)S[C@@H]2[C@H](NC(=O)[C@H](N)c3ccccc3)C(=O)N2[C@H]1C(=O)O [AMP, ampicillin, reference compound]
FIC AMP (S.aureus MRSA 43300; MIC of ampicillin in combination with AEA, Table 8B): 8
FIC AMP (S.aureus MRSA 43300; MIC of ampicillin in combination with ARAS, Table 5B): 16
MIC AMP (S.aureus MRSA 43300; Table 5B): 256 mg/L
MIC AMP (S.aureus MRSA 43300; Table 8B): > 128 mg/L
FBIC AMP ([2]; MBIC of ampicillin in combination with AEA, Table 8B): 8
FBIC AMP ([2]; MBIC of ampicillin in combination with ARAS, Table 5B): 64
MBIC AMP ([2]; Table 5B): 256
MBIC AMP ([2]; Table 8B): >128
FBIC AMP ([3]; MBIC of ampicillin in combination with AEA, Table 8A): 8
FBIC AMP ([3]; MBIC of ampicillin in combination with ARAS, Table 5A): 32
MBIC AMP ([3]; Table 5A): 128
MBIC AMP ([3]; Table 8A): 128
FIC AMP (S.aureus MRSA 33592; MIC of ampicillin in combination with AEA, Table 8A): 8
FIC AMP (S.aureus MRSA 33592; MIC of ampicillin in combination with ARAS, Table 5A): 64
MIC AMP (S.aureus MRSA 33592; Table 5A): 128 mg/L
MIC AMP (S.aureus MRSA 33592; Table 8A): 128 mg/L

OC(Cn1cncn1)(Cn1cncn1)c1ccc(F)cc1F [FLU, fluconazole, reference compound]
growth of fluconazole resistant fungal strains [4]: not affected

CCCCCCC(C)(C)c1cc(O)c2c(c1)OC(C)(C)[C@@H]1CC=C(CO)C[C@@H]21 [HU210, 1,1-Dimethylheptyl-11-hydroxy-tetrahydrocannabinol]
biofilm formation at highest tested dose (C. albicans biofilm [5]; HU210 64 μg/ml): Almost no biofilm formed
MBIC50 (minimal biofilm inhibitory concentration 50, 50% of biofilm inhibition) (C. albicans biofilm [5]; single C. albicans biofilm formation): 2 µg/mL
growth of co-culture [6]: not affected
MIC, fungal growth (C. albicans): not detected at tested doses
fungal morphology in biofilm (C. albicans biofilm [7]; 8 μg/ml): influenced fungal morphology
yeast-to-hyphae transition (C. albicans biofilm [7]; 64 μg/ml): appearance of mainly yeast form of C. albicans
density of fungal mycelium (C. albicans biofilm [7]; increasing doses up to 64 μg/ml): decreased dose-dependently
streptococcal biofilm formation (S. mutans biofilm; HU210 2 μg/ml): No streptococcal biofilm was formed
MBIC50 [8]: 4 µg/mL
MIC (S. mutans): 2 mg/L (≈ 5.17 µM)
granularity (C. albicans biofilm [9]; 8 μg/ml): 50 AU
cell size (C. albicans biofilm [9]; 8 μg/ml): 110 AU
viable C. albicans cells in biofilm (C. albicans biofilm [9]; 8 μg/ml, untreated control 88%): 20%
viable cells in fungal biofilm (C. albicans biofilm [9]; 64 μg/ml): totally reduced viable cells
granularity (C. albicans biofilm [9]; 64 μg/ml): 40 AU
cell size (C. albicans biofilm [9]; 64 μg/ml): 100 AU

COc1cccc(OC)c1C(=O)N[C@@H]1C(=O)N2[C@@H]1SC(C)(C)[C@@H]2C(=O)O [METH, methicillin, reference compound]
FIC METH (S.aureus MRSA 43300; MIC of methicillin in combination with AEA, Table 6C): 8
FIC METH (S.aureus MRSA 43300; MIC of methicillin in combination with ARAS, Table 3C): 2
MIC METH (S.aureus MRSA 43300; Table 3C): 32 mg/L
MIC METH (S.aureus MRSA 43300; Table 6C): 32 mg/L
FBIC METH ([10]; MBIC of methicillin in combination with AEA, Table 1): 16 µg/mL
FBIC METH ([10]; MBIC of methicillin in combination with AEA, Table 6B): 16
FBIC METH ([10]; MBIC of methicillin in combination with ARAS, Table 3B): 16
MBIC METH ([10]; Table 1): >64 µg/mL
MBIC METH ([10]; Table 3B): >64
MBIC METH ([10]; Table 6B): >64
FBIC METH ([2]; MBIC of methicillin in combination with AEA, Table 6C): 8
FBIC METH ([2]; MBIC of methicillin in combination with ARAS, Table 3C): 8
MBIC METH ([2]; Table 3C): 32
MBIC METH ([2]; Table 6C): 32
FBIC METH ([3]; MBIC of methicillin in combination with AEA, Table 6A): 8
FBIC METH ([3]; MBIC of methicillin in combination with ARAS, Table 3A): 8
MBIC METH ([3]; Table 3A): 32
MBIC METH ([3]; Table 6A): 32
FIC METH (S.aureus MRSA 33592; MIC of methicillin in combination with AEA, Table 6A): 16
FIC METH (S.aureus MRSA 33592; MIC of methicillin in combination with ARAS, Table 3A): 8
MIC METH (S.aureus MRSA 33592; Table 3A): 32 mg/L
MIC METH (S.aureus MRSA 33592; Table 6A): 32 mg/L
FIC METH (S. aureus MRSA 24433; MIC of methicillin in combination with AEA, Table 1): 16 µg/mL
FIC METH (S. aureus MRSA 24433; MIC of methicillin in combination with AEA, Table 6B): 16
FIC METH (S. aureus MRSA 24433; MIC of methicillin in combination with ARAS, Table 3B): >64
MIC METH (S. aureus MRSA 24433; Table 1): >64 mg/L
MIC METH (S. aureus MRSA 24433; Table 3B): > 64 mg/L
MIC METH (S. aureus MRSA 24433; Table 6B): > 64 mg/L
MIC (S. aureus MRSA 24433; Staphylococcus aureus, MRSA, read-out: MIC METH): > 64 mg/L

CCCCCCCC/C=C\CCCCCCCC(=O)N[C@@H](C)C(=O)O [OA, oleoyl alanine]
MBIC50 (S. mutans biofilm): 16 µg/mL

CCCCCCCC/C=C\CCCCCCCC(=O)NCCO [OEA, oleoyl ethanolamide]
MBIC50 (S. mutans biofilm): 64 µg/mL

CCCCCCCC/C=C\CCCCCCCC(=O)NCC(=O)O [OG, oleoyl glycine]
MBIC50 (S. mutans biofilm): 32 µg/mL

CCCCCCCCCCCCCCCC(=O)NCCO [PEA, palmitoyl ethanolamide]
layers/depth of P. aeruginosa biofilm (P. aeruginosa biofilm): reduced layers/depth of biofilm

gentamycin [reference compound]
FBIC GEN ([3]; MBIC of gentamicin in combination with AEA, Table 7): 8
FBIC GEN ([3]; MBIC of gentamycin in combination with ARAS, Table 4): 4
MBIC GEN ([3]; gentamicin alone, Table 7): 128
MBIC GEN ([3]; gentamycin alone, Table 4): 128
decrease of MIC in combination (S.aureus MRSA 33592; AEA with gentamicin vs agent alone): 32 fold
FIC GEN (S.aureus MRSA 33592; MIC of gentamicin in combination with AEA, Table 7): 4
FIC GEN (S.aureus MRSA 33592; MIC of gentamycin in combination with ARAS, Table 4): 4
MIC GEN (S.aureus MRSA 33592; gentamicin alone, Table 7): 128 mg/L
MIC GEN (S.aureus MRSA 33592; gentamycin alone, Table 4): 128 mg/L
